From ChEMBL document CHEMBL3885881, “DrugMatrix”

Organism: Rattus norvegicus
Test: DrugMatrix - Regimen: Daily Repeat
Format: toxicity, organism-based, Sprague-Dawley
Parameters: regimen Daily Repeat, gender Male, age 6-8 weeks
Conditions: in vivo, po, 75 mg/kg, route oral GAVAGE, dose level Low, vehicle .5 % CMC; for ABSOLUTE BASOPHIL / ABSOLUTE EOSINOPHIL / ABSOLUTE LYMPHOCYTE / ABSOLUTE MONOCYTE / ABSOLUTE SEGMENTED NEUTROPHIL / BASOPHIL / EOSINOPHIL / ERYTHROCYTE COUNT / HEMATOCRIT / HEMOGLOBIN / LEUKOCYTE COUNT / LYMPHOCYTE / MEAN CORPUSCULAR HEMOGLOBIN / MEAN CORPUSCULAR HEMOGLOBIN CONCENTRATION / MEAN CORPUSCULAR VOLUME / MONOCYTE / NEUTROPHIL / NUCLEATED RED BLOOD CELLS / PLATELET COUNT: tissue Blood; for ALANINE AMINOTRANSFERASE / ALBUMIN / ALKALINE PHOSPHATASE / ASPARTATE AMINOTRANSFERASE / BLOOD UREA NITROGEN / CARBON DIOXIDE / CHLORIDE / CHOLESTEROL / CREATINE PHOSPHOKINASE / CREATININE / GLUCOSE / LACTATE DEHYDROGENASE / LIPASE / PHOSPHORUS / POTASSIUM / SODIUM / TOTAL BILIRUBIN / TOTAL PROTEIN / URIC ACID: tissue Plasma

**Q.** What does the source list for `CC(=O)OC[C@H]1O[C@@H](n2ncc(=O)[nH]c2=O)[C@H](OC(C)=O)[C@@H]1OC(C)=O` [AZARIBINE]?
**A.** ABSOLUTE BASOPHIL (72 h, time 3 day): 0 CELLS/uL; ABSOLUTE EOSINOPHIL (72 h, time 3 day): 0 CELLS/uL; ABSOLUTE LYMPHOCYTE (72 h, time 3 day): 12537.67 CELLS/uL; ABSOLUTE MONOCYTE (72 h, time 3 day): 196 CELLS/uL; ABSOLUTE SEGMENTED NEUTROPHIL (72 h, time 3 day): 1699.67 CELLS/uL; BASOPHIL (72 h, time 3 day): 0%; EOSINOPHIL (72 h, time 3 day): 0%; ERYTHROCYTE COUNT (72 h, time 3 day): 5.31 x10E6/uL; HEMATOCRIT (72 h, time 3 day): 32.6%; HEMOGLOBIN (72 h, time 3 day): 12.37 G/DL; LEUKOCYTE COUNT (72 h, time 3 day): 14.43 x10E3/uL; LYMPHOCYTE (72 h, time 3 day): 87%; MEAN CORPUSCULAR HEMOGLOBIN (72 h, time 3 day): 23.3 pg; MEAN CORPUSCULAR HEMOGLOBIN CONCENTRATION (72 h, time 3 day): 37.93 G/DL; MEAN CORPUSCULAR VOLUME (72 h, time 3 day): 61.4 fL; MONOCYTE (72 h, time 3 day): 1.33%; NEUTROPHIL (72 h, time 3 day): 11.67%; NUCLEATED RED BLOOD CELLS (72 h, time 3 day): 0 /100WBC; PLATELET COUNT (72 h, time 3 day): 1235.33 x10E3/uL; ALANINE AMINOTRANSFERASE (72 h, time 3 day): 37 u/L; ALBUMIN (72 h, time 3 day): 4.13 G/DL; ALKALINE PHOSPHATASE (72 h, time 3 day): 384.67 u/L; ASPARTATE AMINOTRANSFERASE (72 h, time 3 day): 74.67 u/L; BLOOD UREA NITROGEN (72 h, time 3 day): 16.33 mg/dL; CARBON DIOXIDE (72 h, time 3 day): 24.33 mmol/L; CHLORIDE (72 h, time 3 day): 100.67 MEQ/L; CHOLESTEROL (72 h, time 3 day): 73 mg/dL; CREATINE PHOSPHOKINASE (72 h, time 3 day): 254.33 u/L; CREATININE (72 h, time 3 day): 0.25 mg/dL; GLUCOSE (72 h, time 3 day): 157.67 mg/dL; LACTATE DEHYDROGENASE (72 h, time 3 day): 151 u/L; LIPASE (72 h, time 3 day): 10.33 u/L; PHOSPHORUS (72 h, time 3 day): 12.53 mg/dL; POTASSIUM (72 h, time 3 day): 5.81 MEQ/L; SODIUM (72 h, time 3 day): 141.13 MEQ/L; TOTAL BILIRUBIN (72 h, time 3 day): 0.17 mg/dL; TOTAL PROTEIN (72 h, time 3 day): 6.2 G/DL; URIC ACID (72 h, time 3 day): 1.1 mg/dL; ABSOLUTE BASOPHIL (120 h, time 5 day): 0 CELLS/uL; ABSOLUTE EOSINOPHIL (120 h, time 5 day): 42.67 CELLS/uL; ABSOLUTE LYMPHOCYTE (120 h, time 5 day): 10939.33 CELLS/uL; ABSOLUTE MONOCYTE (120 h, time 5 day): 627 CELLS/uL; ABSOLUTE SEGMENTED NEUTROPHIL (120 h, time 5 day): 1691 CELLS/uL; BASOPHIL (120 h, time 5 day): 0%; EOSINOPHIL (120 h, time 5 day): 0.33%; ERYTHROCYTE COUNT (120 h, time 5 day): 5.34 x10E6/uL; HEMATOCRIT (120 h, time 5 day): 32.93%; HEMOGLOBIN (120 h, time 5 day): 12.57 G/DL; LEUKOCYTE COUNT (120 h, time 5 day): 13.3 x10E3/uL; LYMPHOCYTE (120 h, time 5 day): 82.33%; MEAN CORPUSCULAR HEMOGLOBIN (120 h, time 5 day): 23.53 pg; MEAN CORPUSCULAR HEMOGLOBIN CONCENTRATION (120 h, time 5 day): 38.17 G/DL; MEAN CORPUSCULAR VOLUME (120 h, time 5 day): 61.67 fL; MONOCYTE (120 h, time 5 day): 4.67%; NEUTROPHIL (120 h, time 5 day): 12.67%; NUCLEATED RED BLOOD CELLS (120 h, time 5 day): 0 /100WBC; PLATELET COUNT (120 h, time 5 day): 932 x10E3/uL; ALANINE AMINOTRANSFERASE (120 h, time 5 day): 43.33 u/L; ALBUMIN (120 h, time 5 day): 3.93 G/DL; ALKALINE PHOSPHATASE (120 h, time 5 day): 273 u/L; ASPARTATE AMINOTRANSFERASE (120 h, time 5 day): 76 u/L; BLOOD UREA NITROGEN (120 h, time 5 day): 16.67 mg/dL; CARBON DIOXIDE (120 h, time 5 day): 33 mmol/L; CHLORIDE (120 h, time 5 day): 95.33 MEQ/L; CHOLESTEROL (120 h, time 5 day): 74 mg/dL; CREATINE PHOSPHOKINASE (120 h, time 5 day): 309 u/L; CREATININE (120 h, time 5 day): 0.2 mg/dL; GLUCOSE (120 h, time 5 day): 150 mg/dL; LACTATE DEHYDROGENASE (120 h, time 5 day): 226 u/L; LIPASE (120 h, time 5 day): 10.33 u/L; PHOSPHORUS (120 h, time 5 day): 12.03 mg/dL; POTASSIUM (120 h, time 5 day): 6.04 MEQ/L; SODIUM (120 h, time 5 day): 140.6 MEQ/L; TOTAL BILIRUBIN (120 h, time 5 day): 0.1 mg/dL; TOTAL PROTEIN (120 h, time 5 day): 5.93 G/DL; URIC ACID (120 h, time 5 day): 1.33 mg/dL
